Test results published in patent US20250326771A1, “PIPERAZINE DERIVATIVES USEFUL IN HIV THERAPY” (VIIV HEALTHCARE COMPANY, priority 2022, published 2025).
Where two headings read alike, the source gives them in different places.

Key:
XIAP-BIR2 = XIAP-BIR2 (Homo sapiens (Human), UniProt P98170); assay: BIR binding assay (FRET competition), XIAP BIR2; conditions: read-out: XIAP BIR2 (pIC50) (converted)
Procedure, shortened: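 Competitive TR-FRET used His-tagged XIAP-BIR2 (200 nM) and 200 nM AlexaFluor647-labelled AVPIAQKSE SMAC peptide in HEPES buffer pH 7.4 with CHAPS, glycerol and DTT, incubated 60 min before 30 min with 2 nM Eu-W1024. The 615/665 nm ratio from a 15-point, 3-fold series was fit with a four-parameter model for IC50/pIC50.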

cIAP2-BIR2 = cIAP2-BIR2 (Homo sapiens (Human), UniProt Q13489); assay: BIR binding assay (FRET competition), cIAP2 BIR2
Sequence of cIAP2-BIR2 (Q13489 158-242): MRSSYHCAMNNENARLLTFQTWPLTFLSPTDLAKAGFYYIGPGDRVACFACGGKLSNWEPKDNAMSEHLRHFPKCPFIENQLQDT
Procedure, shortened: (§1)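 615/665 nm FRET ratio. Compound, His-domain and 200 nM AF647-SMAC peptide incubated 60 min, then 2 nM Eu-W1024 for 30 min. Domains: cIAP1-BIR3 50 nM; XIAP-BIR3 100 nM; cIAP1-BIR2, cIAP2-BIR2 325 nM each. 15-pt 3-fold series; variable-slope IC50.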

XIAP-BIR3 = XIAP-BIR3 (Homo sapiens (Human), UniProt P98170); assay: BIR binding assay (FRET competition), XIAP BIR3; conditions: for XIAP BIR3 vs BIR2 separation window: fold separation (FS) for XIAP
Sequence of XIAP-BIR3 (P98170 241-356): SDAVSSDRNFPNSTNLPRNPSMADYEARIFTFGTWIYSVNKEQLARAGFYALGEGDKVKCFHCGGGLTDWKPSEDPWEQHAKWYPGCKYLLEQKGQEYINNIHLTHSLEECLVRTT
Procedure, shortened: as §1

cIAP2-BIR3 = cIAP2-BIR3 (Homo sapiens (Human), UniProt Q13489); assay: BIR binding assay (FRET competition), cIAP2 BIR3; conditions: for cIAP2 BIR3 vs BIR2 separation window: fold separation (FS) for cIAP2
Sequence of cIAP2-BIR3 (Q13489 238-349): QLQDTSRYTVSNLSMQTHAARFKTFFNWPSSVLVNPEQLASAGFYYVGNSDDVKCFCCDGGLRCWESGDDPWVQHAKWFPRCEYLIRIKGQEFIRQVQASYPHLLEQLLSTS

cIAP1-BIR2 = cIAP1-BIR2 (Homo sapiens (Human), UniProt Q13490); assay: BIR binding assay (FRET competition), cIAP1 BIR2
Sequence of cIAP1-BIR2 (Q13490 173-257): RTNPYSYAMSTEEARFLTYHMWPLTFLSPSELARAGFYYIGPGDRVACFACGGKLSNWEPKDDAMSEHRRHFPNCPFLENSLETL
Procedure, shortened: as §1

[1] = tested on: Jurkat HIV-luciferase clones; assay: Jurkat latency reversal assay; type: cell-based; conditions: Homo sapiens, 48 h; Jurkat latency reversal assay potency; read-out: Jurkat pEC50 (converted)
Procedure, shortened: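 EC50 and maximal activation versus vehicle were derived by four-parameter logistic regression of luciferase luminescence. The luminescence was induced in pooled Jurkat HIV-luciferase clones C16, 115 and N6 (5,000 cells/well) after 48 h at 37° C with duplicate 14-point, 3-fold dilutions starting at 10 μM (0.5% DMSO).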

cIAP1-BIR3 = cIAP1-BIR3 (Homo sapiens (Human), UniProt Q13490); assay: BIR binding assay (FRET competition), cIAP1 BIR3; conditions: for cIAP1 BIR3 vs BIR2 separation window: fold separation (FS) for cIAP1
Sequence of cIAP1-BIR3 (Q13490 253-363): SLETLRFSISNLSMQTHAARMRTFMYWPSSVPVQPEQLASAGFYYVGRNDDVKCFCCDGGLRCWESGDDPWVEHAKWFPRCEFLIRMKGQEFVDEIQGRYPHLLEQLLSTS
Procedure, shortened: as §1

Sequence of XIAP-BIR2 (P98170 124-240): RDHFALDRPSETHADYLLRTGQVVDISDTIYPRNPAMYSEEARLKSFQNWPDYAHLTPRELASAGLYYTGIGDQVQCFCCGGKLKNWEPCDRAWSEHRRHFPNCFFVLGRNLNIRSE

SMILES	IC50 (XIAP-BIR2; FRET competition)	IC50 (cIAP2-BIR2)	IC50 (XIAP-BIR3)	XIAP BIR3 vs BIR2 separation window (XIAP-BIR3)	IC50 (cIAP2-BIR3)	cIAP2 BIR3 vs BIR2 separation window (cIAP2-BIR3)	IC50 (cIAP1-BIR2)	EC50 [1]	IC50 (cIAP1-BIR3)	cIAP1 BIR3 vs BIR2 separation window (cIAP1-BIR3)	IC50 (XIAP-BIR2; FRET competition binding)
C[C@@H]1CN(CC(=O)N2CC(C)(C)c3[nH]c(=O)c(Cc4ccc(F)cc4)cc32)[C@@H](CN2CCO[C@H](C(=O)NCCN3CCN(C(=O)[C@@H]4CN(C[C@H]5CN[C@H](C)CN5CC(=O)N5CC(C)(C)c6[nH]c(=O)c(Cc7ccc(F)cc7)cc65)CCO4)CC3)C2)CN1 [Compound 134, (S)-4-(((2R,5R)-1-(2-(6-(4-fluorobenzyl)-3,3-dimethyl-5-oxo-2,3,4,5-tetrahydro-1H-pyrrolo[3,2-b]pyridin-1-yl)-2-oxoethyl)-5-methylpiperazin-2-yl)methyl)-N-(2-(4-((S)-4-(((2R,5R)-1-(2-(6-(4-fluorobenzyl)-3,3-dimethyl-5-oxo-2,3,4,5-tetrahydro-1H-pyrrolo[3,2-b]pyridin-1-yl)-2-oxoethyl)-5-methylpiperazin-2-yl)methyl)morpholine-2-carbonyl)piperazin-1-yl)ethyl)morpholine-2-carboxamide]	10 to 51.3 µM	1 to 3.16 µM	0.0316 to 0.501 µM	+++ (10,000>FS>1,000)	0.00794 to 0.0158 µM	+++ (10,000>FS>1,000)	1 to 3.16 µM	0.0126 to 0.0631 µM	0.0158 to 0.0316 µM	++ (1,000>FS>100)	
C[C@@H]1CN(CC(=O)N2CC(C)(C)c3[nH]c(=O)c(Cc4ccc(F)cc4)cc32)[C@@H](CN2CCC(CC(=O)N(C)Cc3ccc(CN(C)C(=O)CC4CCN(C[C@H]5CN[C@H](C)CN5CC(=O)N5CC(C)(C)c6[nH]c(=O)c(Cc7ccc(F)cc7)cc65)CC4)cc3)CC2)CN1 [Example 106, N,N′-(1,4-phenylenebis(methylene))bis(2-(1-(((2R,5R)-1-(2-(6-(4-fluorobenzyl)-3,3-dimethyl-5-oxo-2,3,4,5-tetrahydro-1H-pyrrolo[3,2-b]pyridin-1-yl)-2-oxoethyl)-5-methylpiperazin-2-yl)methyl)piperidin-4-yl)-N-methylacetamide)]		1 to 3.16 µM	0.00138 to 0.00794 µM	++++ (FS>10,000)	0.00138 to 0.00794 µM	+++ (10,000>FS>1,000)	1 to 3.16 µM	0.0126 to 0.0631 µM	0.00138 to 0.00794 µM	+++ (10,000>FS>1,000)	10 to 51.3 µM
C[C@@H]1CN(CC(=O)N2CC(C)(C)c3[nH]c(=O)c(Cc4ccc(F)cc4)cc32)[C@@H](CN2CCO[C@H](C(=O)NCCCCCNC(=O)[C@@H]3CN(C[C@H]4CN[C@H](C)CN4CC(=O)N4CC(C)(C)c5[nH]c(=O)c(Cc6ccc(F)cc6)cc54)CCO3)C2)CN1 [Compound 136, (2S,2′S)-N,N′-(pentane-1,5-diyl)bis(4-(((2R,5R)-1-(2-(6-(4-fluorobenzyl)-3,3-dimethyl-5-oxo-2,3,4,5-tetrahydro-1H-pyrrolo[3,2-b]pyridin-1-yl)-2-oxoethyl)-5-methylpiperazin-2-yl)methyl)morpholine-2-carboxamide)]	10 to 51.3 µM	1 to 3.16 µM	0.0158 to 0.0316 µM	++++ (FS>10,000)	0.00794 to 0.0158 µM	+++ (10,000>FS>1,000)	1 to 3.16 µM	0.0631 to 0.316 µM	0.00794 to 0.0158 µM	+++ (10,000>FS>1,000)	
C[C@@H]1CN(CC(=O)N2CC(C)(C)c3[nH]c(=O)c(Cc4ccc(F)cc4)cc32)[C@@H](CN2CCC(CCN(C)C(=O)c3ccc(C(=O)N(C)CCC4CCN(C[C@H]5CN[C@H](C)CN5CC(=O)N5CC(C)(C)c6[nH]c(=O)c(Cc7ccc(F)cc7)cc65)CC4)cc3)CC2)CN1 [Example 104, N^1,N^4-bis(2-(1-(((2R,5R)-1-(2-(6-(4-fluorobenzyl)-3,3-dimethyl-5-oxo-2,3,4,5-tetrahydro-1H-pyrrolo[3,2-b]pyridin-1-yl)-2-oxoethyl)-5-methylpiperazin-2-yl)methyl)piperidin-4-yl)ethyl)-N^1,N^4-dimethylterephthalamide]		1 to 3.16 µM	0.00138 to 0.00794 µM	++++ (FS>10,000)	0.00138 to 0.00794 µM	+++ (10,000>FS>1,000)	1 to 3.16 µM	0.0631 to 0.316 µM	0.00138 to 0.00794 µM	+++ (10,000>FS>1,000)	10 to 51.3 µM
